Experimental data from patent US20080145840A1 (priority 2003, published 2008).
Values joined by “and” are separate entries in the source; they are usually repeats but may differ in a detail not shown here. Identical values can stand only once. Like-named read-outs stand apart in the source and are kept apart here.

Legend:
[1] = molecular target: T1, E. coli MurB (Escherichia coli, UniProt P08373); experiment: ITC assay of E. coli MurB activity; type: biochemical
Description: E. coli MurB was diluted in assay buffer (50 mM Tris pH 8.0, 1 mM TCEP, 20 mM KCl, 0.005% Triton X-100) to a final concentration of 1.3 nM. The buffer contained the MurB substrates at the following concentrations in the ITC test cell: 100 μM NADPH and 60 μM UDP-GlcNAc-EP. DMSO was also added at a final concentration of 2.7% (v/v).
(§1) The inhibition of E. coli MurB by (2R)-2-{2-[3-(4-tert-butylphenoxy)phenyl]-4-oxo-1,3-thiazolidin-3-yl} hexanoic acid, a 4-thiazolidinone compound, was studied by the same method. Reactions were carried in 50 mM Tris, pH 8.0, 1 mM TCEP, 20 mM KCl, 0.005% Triton, in the presence of 100 μM NADPH and 60 μM EP. The concentration of MurB was 1.3 nM.

[2] = molecular target: T1, E. coli MurB; experiment: Absorbance method measuring NADPH depletion at 340 nm (MurB activity); type: biochemical
Description: as §1
Other kinetic measurements were performed to further characterize E. coli MurB by ITC.

[3] = molecular target: T2, E. coli MurC (Escherichia coli, UniProt P17952); experiment: biochemical
[4] = molecular target: T2, E. coli MurC; experiment: biochemical; remark: listed apart in the source
Description: E. coli MurC was diluted in assay buffer (50 mM Tris pH 8.0, 1 mM Tris (2-carboxyethyl) phosphine hydrochloride (TCEP), 0.01% (w/v) Triton X-100, 20 mM ammonium formate) to a final concentration of 10 nM. […] The titration was started manually after the DP signal was stabilized. A total of 16 injections (2, 2, 4, 4, 4, 4, 8, 8, 16, 16, 32, 32, 32, 32, 32, and 32 μl) were performed. Time spacing in between injections was set at 120 sec for all injections.
All the reactions were carried in 50 mM Tris, pH 8.0, 1 mM TCEP, 0.01% (w/v) Triton, and 20 mM ammonium formate. The final concentration of E. coli MurC was 10 nM. […] The reaction was initiated with the addition of MurC and placed into the test cell. AMP-PCP was dissolved in the buffer described above at a final concentration of 2.8 mM and placed into the titration syringe.

[5] = molecular target: T3, E. coli GyrAB (Escherichia coli, UniProt P0AES6); experiment: Independent assay of GyrAB enzyme activity using phosphate detection; type: biochemical; conditions: read-out: Ki, ADP
[6] = molecular target: T3, E. coli GyrAB; experiment: ITC assay of E. coli GyrAB ATPase activity; type: biochemical; conditions: read-out: Ki, ADP
Description: The titration was started manually after the DP signal was stabilized.
The data were analyzed as follows: the power value (μcal/sec) after each injection is subtracted from the initial power value (before any injection occurs).

T2 sequence (P17952 whole entry): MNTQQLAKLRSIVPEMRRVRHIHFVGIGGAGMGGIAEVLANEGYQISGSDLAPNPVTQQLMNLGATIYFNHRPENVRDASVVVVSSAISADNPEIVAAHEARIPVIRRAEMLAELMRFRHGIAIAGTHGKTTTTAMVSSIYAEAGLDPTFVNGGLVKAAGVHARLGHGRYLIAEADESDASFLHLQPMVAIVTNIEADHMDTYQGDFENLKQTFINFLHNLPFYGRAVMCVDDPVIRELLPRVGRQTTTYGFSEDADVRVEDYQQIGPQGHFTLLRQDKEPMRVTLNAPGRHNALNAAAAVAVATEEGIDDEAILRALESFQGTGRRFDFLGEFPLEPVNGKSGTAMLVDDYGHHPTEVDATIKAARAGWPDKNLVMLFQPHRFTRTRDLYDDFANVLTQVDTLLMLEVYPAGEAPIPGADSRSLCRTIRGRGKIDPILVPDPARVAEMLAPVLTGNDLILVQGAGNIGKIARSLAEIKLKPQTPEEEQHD
T1 sequence (P08373 whole entry): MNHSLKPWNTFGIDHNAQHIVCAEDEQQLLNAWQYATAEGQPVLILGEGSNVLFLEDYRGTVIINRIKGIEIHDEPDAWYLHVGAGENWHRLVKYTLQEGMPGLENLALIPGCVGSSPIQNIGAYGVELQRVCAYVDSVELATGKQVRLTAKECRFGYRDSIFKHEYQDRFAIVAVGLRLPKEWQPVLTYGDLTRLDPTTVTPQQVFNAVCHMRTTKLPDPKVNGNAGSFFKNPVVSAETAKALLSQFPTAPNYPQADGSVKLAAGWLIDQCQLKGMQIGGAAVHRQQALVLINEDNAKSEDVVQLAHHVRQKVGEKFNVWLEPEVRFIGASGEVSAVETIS

## CCCC[C@H](C(=O)O)N1C(=O)CSC1c1cccc(Oc2ccc(C(C)(C)C)cc2)c1 (stereo partly drawn) [4-thiazolidinone analogue, (2R)-2-{2-[3-(4-tert-butylphenoxy)phenyl]-4-oxo-1,3-thiazolidin-3-yl} hexanoic acid]
[1]; 1.3 nM MurB, 100 μM NADPH, 60 μM UDP-GlcNAc-EP, read-out: 4-thiazolidinone analogue IC50
  IC50: 154 µM
[2]; NADPH depletion at 340 nm, read-out: 4-thiazolidinone analogue IC50
  IC50: 101 µM

## C=C(O[C@H]1[C@H](O)[C@@H](CO)O[C@H](OP(=O)(O)OP(=O)(O)OC[C@H]2O[C@@H](n3ccc(=O)[nH]c3=O)[C@H](O)[C@@H]2O)[C@@H]1NC(C)=O)C(=O)O [UDP-GlcNAc−EP, uridine diphosphate-GlcNAc-enolpyruvate]
[1]; read-out: KM, UDP-GlcNAc-EP
  Km: 8 µM
[2]; read-out: KM, UDP-GlcNAc-EP
  Km: 6 µM

## NC(=O)C1=CN([C@@H]2O[C@H](COP(=O)(O)OP(=O)(O)OC[C@H]3O[C@@H](n4cnc5c(N)ncnc54)[C@H](OP(=O)(O)O)[C@@H]3O)[C@@H](O)[C@H]2O)C=CC1 [NADPH]
[1]; read-out: KM, NADPH
  Km: 9 µM
[2]; read-out: KM, NADPH
  Km: 9 µM

## Nc1ncnc2c1ncn2[C@@H]1O[C@H](COP(=O)(O)OP(=O)(O)CP(=O)(O)O)[C@@H](O)[C@H]1O [AMP-PCP, β,γ-Methyleneadenosine 5′-triphosphate]
[3]; AMP-PCP IC50
  IC50: 40 µM and 35 µM
[4]
  IC50: 27 µM

## Nc1ncnc2c1ncn2[C@@H]1O[C@H](COP(=O)(O)OP(=O)(O)O)[C@@H](O)[C@H]1O [ADP]
[5]
  Ki: 18 µM
[6]
  Ki: 18 µM

## CC(=O)N[C@H]1[C@@H](OP(=O)(O)OP(=O)(O)OC[C@H]2O[C@@H](n3ccc(=O)[nH]c3=O)[C@H](O)[C@@H]2O)O[C@H](CO)[C@@H](O)[C@@H]1O[C@H](C)C(=O)O [UDP-MurNAc]
[3]; Phosphate detection, read-out: KM, UDP-MurNAc
  Km: 19 µM
[4]; ITC, read-out: KM, UDP-MurNAc
  Km: 21 µM
